According to ChEMBL document CHEMBL1138130, “Synthesis and antibacterial activity of 3-O-acyl-6-O-carbamoyl erythromycin A derivatives” (2006):
Converted amounts (≈) assume the structure as drawn.

Assays:
Format in all cases: functional
Haemophilus influenzae = experiment: Antibacterial activity against Haemophilus influenzae OC4882
Streptococcus pneumoniae [1] = experiment: Antibacterial activity against erm(B) ribosomal methylase gene containing Streptococcus pneumoniae OC4051
Staphylococcus aureus = experiment: Antibacterial activity against Staphylococcus aureus OC4172
Streptococcus pneumoniae [2] = experiment: Antibacterial activity against Streptococcus pneumoniae OC9132
Streptococcus pneumoniae [3] = experiment: Antibacterial activity against Mef(A) efflux pump containing Streptococcus pneumoniae OC4438

| Structure (SMILES) | MIC (Haemophilus influenzae) | MIC (Streptococcus pneumoniae [1]) | MIC (Staphylococcus aureus) | MIC (Streptococcus pneumoniae [2]) | MIC (Streptococcus pneumoniae [3]) |
| --- | --- | --- | --- | --- | --- |
| CC[C@H]1OC(=O)[C@H](C)[C@@H](OC(=O)Nc2ccc(OC)cc2)[C@H](C)[C@@H](O[C@@H]2O[C@H](C)C[C@H](N(C)C)[C@H]2O)[C@](C)(OC(=O)NC/C=C/c2ccc(-c3ncccn3)cc2)C[C@@H](C)C(=O)[C@H](C)[C@H]2NC(=O)O[C@@]21C | 16 µg/mL (≈ 16.2 µM) | 4 µg/mL (≈ 4.05 µM) | 1 µg/mL (≈ 1.01 µM) | 0.12 µg/mL (≈ 0.122 µM) | 0.25 µg/mL (≈ 0.253 µM) |
| CC[C@H]1OC(=O)[C@H](C)[C@@H](OC(=O)N(C)C)[C@H](C)[C@@H](O[C@@H]2O[C@H](C)C[C@H](N(C)C)[C@H]2O)[C@](C)(OC(=O)NC/C=C/c2ccc(-c3ncccn3)cc2)C[C@@H](C)C(=O)[C@H](C)[C@H]2NC(=O)O[C@@]21C | 8 µg/mL (≈ 8.8 µM) | 0.25 µg/mL (≈ 0.275 µM) | 0.25 µg/mL (≈ 0.275 µM) | 0.03 µg/mL (≈ 0.033 µM) | 0.06 µg/mL (≈ 0.066 µM) |
| CC[C@H]1OC(=O)[C@H](C)[C@@H](OC(=O)Cc2cccnc2)[C@H](C)[C@@H](O[C@@H]2O[C@H](C)C[C@H](N(C)C)[C@H]2O)[C@](C)(OC(=O)NC/C=C/c2ccc(-c3ncccn3)cc2)C[C@@H](C)C(=O)[C@H](C)[C@H]2NC(=O)O[C@@]21C | 4 µg/mL (≈ 4.18 µM) | 0.12 µg/mL (≈ 0.125 µM) | 0.12 µg/mL (≈ 0.125 µM) | 0.03 µg/mL (≈ 0.0313 µM) | 0.06 µg/mL (≈ 0.0627 µM) |
| CC[C@H]1OC(=O)[C@H](C)C(=O)[C@H](C)[C@@H](O[C@@H]2O[C@H](C)C[C@H](N(C)C)[C@H]2O)[C@](C)(OC)C[C@@H](C)C(=O)[C@H](C)[C@H]2N(CCCCn3cnc(-c4cccnc4)c3)C(=O)O[C@]12C [TELITHROMYCIN] | 2 µg/mL (≈ 2.46 µM) | 0.06 µg/mL (≈ 0.0739 µM) | 0.25 µg/mL (≈ 0.308 µM) | 0.03 µg/mL (≈ 0.0369 µM) | 0.25 µg/mL (≈ 0.308 µM) |
| CC[C@H]1OC(=O)[C@H](C)[C@@H](OC(=O)Cc2cccnc2)[C@H](C)[C@@H](O[C@@H]2O[C@H](C)C[C@H](N(C)C)[C@H]2O)[C@](C)(OC(=O)NC/C=C/c2cnc(C3CC3)nc2)C[C@@H](C)C(=O)[C@H](C)[C@H]2NC(=O)O[C@@]21C | 2 µg/mL (≈ 2.17 µM) | 0.25 µg/mL (≈ 0.271 µM) | 0.5 µg/mL (≈ 0.543 µM) | 0.06 µg/mL (≈ 0.0651 µM) | 0.25 µg/mL (≈ 0.271 µM) |
| CC[C@H]1OC(=O)[C@H](C)[C@@H](OC(=O)Cc2ccncc2)[C@H](C)[C@@H](O[C@@H]2O[C@H](C)C[C@H](N(C)C)[C@H]2O)[C@](C)(OC(=O)NC/C=C/c2ccc(-c3ncccn3)cc2)C[C@@H](C)C(=O)[C@H](C)[C@H]2NC(=O)O[C@@]21C | 4 µg/mL (≈ 4.18 µM) | 0.25 µg/mL (≈ 0.261 µM) | 0.25 µg/mL (≈ 0.261 µM) | 0.03 µg/mL (≈ 0.0313 µM) | 0.12 µg/mL (≈ 0.125 µM) |
| CCC(=O)O[C@H]1[C@H](C)[C@@H](O[C@@H]2O[C@H](C)C[C@H](N(C)C)[C@H]2O)[C@](C)(OC(=O)NC/C=C/c2ccc(-c3ncccn3)cc2)C[C@@H](C)C(=O)[C@H](C)[C@H]2NC(=O)O[C@]2(C)[C@@H](CC)OC(=O)[C@@H]1C | 8 µg/mL (≈ 8.95 µM) | 0.25 µg/mL (≈ 0.28 µM) | 0.5 µg/mL (≈ 0.559 µM) | 0.03 µg/mL (≈ 0.0336 µM) | 0.12 µg/mL (≈ 0.134 µM) |
| CC[C@H]1OC(=O)[C@H](C)[C@@H](OC(=O)N(CC)CC)[C@H](C)[C@@H](O[C@@H]2O[C@H](C)C[C@H](N(C)C)[C@H]2O)[C@](C)(OC(=O)NC/C=C/c2ccc(-n3cccn3)cc2)C[C@@H](C)C(=O)[C@H](C)[C@H]2NC(=O)O[C@@]21C | 4 µg/mL (≈ 4.32 µM) | 0.5 µg/mL (≈ 0.54 µM) | 1 µg/mL (≈ 1.08 µM) | 0.12 µg/mL (≈ 0.13 µM) | 0.12 µg/mL (≈ 0.13 µM) |
| CC[C@H]1OC(=O)[C@H](C)[C@@H](OC(=O)Nc2ccc(F)cc2)[C@H](C)[C@@H](O[C@@H]2O[C@H](C)C[C@H](N(C)C)[C@H]2O)[C@](C)(OC(=O)NC/C=C/c2ccc(-c3ncccn3)cc2)C[C@@H](C)C(=O)[C@H](C)[C@H]2NC(=O)O[C@@]21C | 16 µg/mL (≈ 16.4 µM) | 2 µg/mL (≈ 2.05 µM) | 1 µg/mL (≈ 1.03 µM) | 0.12 µg/mL (≈ 0.123 µM) | 0.25 µg/mL (≈ 0.256 µM) |
| CC[C@H]1OC(=O)[C@H](C)[C@@H](OC(C)=O)[C@H](C)[C@@H](O[C@@H]2O[C@H](C)C[C@H](N(C)C)[C@H]2O)[C@](C)(OC(=O)NC/C=C/c2ccc(-c3ncccn3)cc2)C[C@@H](C)C(=O)[C@H](C)[C@H]2NC(=O)O[C@@]21C | 16 µg/mL (≈ 18.2 µM) | 0.5 µg/mL (≈ 0.568 µM) | 1 µg/mL (≈ 1.14 µM) | 0.03 µg/mL (≈ 0.0341 µM) | 0.12 µg/mL (≈ 0.136 µM) |
| CC[C@H]1OC(=O)[C@H](C)[C@@H](OC(=O)N(C)c2ccncc2)[C@H](C)[C@@H](O[C@@H]2O[C@H](C)C[C@H](N(C)C)[C@H]2O)[C@](C)(OC(=O)NC/C=C/c2ccc(-c3ncccn3)cc2)C[C@@H](C)C(=O)[C@H](C)[C@H]2NC(=O)O[C@@]21C | 8 µg/mL (≈ 8.23 µM) | 0.25 µg/mL (≈ 0.257 µM) | 1 µg/mL (≈ 1.03 µM) | 0.06 µg/mL (≈ 0.0617 µM) | 0.25 µg/mL (≈ 0.257 µM) |
| CC[C@H]1OC(=O)[C@H](C)[C@@H](OC(=O)Cc2ccccn2)[C@H](C)[C@@H](O[C@@H]2O[C@H](C)C[C@H](N(C)C)[C@H]2O)[C@](C)(OC(=O)NC/C=C/c2ccc(-c3ncccn3)cc2)C[C@@H](C)C(=O)[C@H](C)[C@H]2NC(=O)O[C@@]21C | 4 µg/mL (≈ 4.18 µM) | 0.12 µg/mL (≈ 0.125 µM) | 0.25 µg/mL (≈ 0.261 µM) | 0.03 µg/mL (≈ 0.0313 µM) | 0.12 µg/mL (≈ 0.125 µM) |
